Laboratory results as given in patent US10457655B2, “Compounds and compositions for inhibition of FASN” (FORMA Therapeutics, Inc., priority 2013, dated 2019).

target: FASN enzyme (Homo sapiens, UniProt P49327); experiment: Enzymatic Assay for FASN Inhibitors; type: biochemical; conditions: not given
Summary of the method: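 40 nM FASN preincubated with compound 60 min at 25° C in HEPES pH 7.3 buffer with 0.04% Triton X-100. Then 20 μM acetyl-CoA, 60 μM malonyl-CoA and 100 μM NADPH added for 90 min, quenched with CPM thiol probe; fluorescence 360/530 nm, IC50 by four-parameter fit.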

Sequence of FASN enzyme (P49327 whole entry): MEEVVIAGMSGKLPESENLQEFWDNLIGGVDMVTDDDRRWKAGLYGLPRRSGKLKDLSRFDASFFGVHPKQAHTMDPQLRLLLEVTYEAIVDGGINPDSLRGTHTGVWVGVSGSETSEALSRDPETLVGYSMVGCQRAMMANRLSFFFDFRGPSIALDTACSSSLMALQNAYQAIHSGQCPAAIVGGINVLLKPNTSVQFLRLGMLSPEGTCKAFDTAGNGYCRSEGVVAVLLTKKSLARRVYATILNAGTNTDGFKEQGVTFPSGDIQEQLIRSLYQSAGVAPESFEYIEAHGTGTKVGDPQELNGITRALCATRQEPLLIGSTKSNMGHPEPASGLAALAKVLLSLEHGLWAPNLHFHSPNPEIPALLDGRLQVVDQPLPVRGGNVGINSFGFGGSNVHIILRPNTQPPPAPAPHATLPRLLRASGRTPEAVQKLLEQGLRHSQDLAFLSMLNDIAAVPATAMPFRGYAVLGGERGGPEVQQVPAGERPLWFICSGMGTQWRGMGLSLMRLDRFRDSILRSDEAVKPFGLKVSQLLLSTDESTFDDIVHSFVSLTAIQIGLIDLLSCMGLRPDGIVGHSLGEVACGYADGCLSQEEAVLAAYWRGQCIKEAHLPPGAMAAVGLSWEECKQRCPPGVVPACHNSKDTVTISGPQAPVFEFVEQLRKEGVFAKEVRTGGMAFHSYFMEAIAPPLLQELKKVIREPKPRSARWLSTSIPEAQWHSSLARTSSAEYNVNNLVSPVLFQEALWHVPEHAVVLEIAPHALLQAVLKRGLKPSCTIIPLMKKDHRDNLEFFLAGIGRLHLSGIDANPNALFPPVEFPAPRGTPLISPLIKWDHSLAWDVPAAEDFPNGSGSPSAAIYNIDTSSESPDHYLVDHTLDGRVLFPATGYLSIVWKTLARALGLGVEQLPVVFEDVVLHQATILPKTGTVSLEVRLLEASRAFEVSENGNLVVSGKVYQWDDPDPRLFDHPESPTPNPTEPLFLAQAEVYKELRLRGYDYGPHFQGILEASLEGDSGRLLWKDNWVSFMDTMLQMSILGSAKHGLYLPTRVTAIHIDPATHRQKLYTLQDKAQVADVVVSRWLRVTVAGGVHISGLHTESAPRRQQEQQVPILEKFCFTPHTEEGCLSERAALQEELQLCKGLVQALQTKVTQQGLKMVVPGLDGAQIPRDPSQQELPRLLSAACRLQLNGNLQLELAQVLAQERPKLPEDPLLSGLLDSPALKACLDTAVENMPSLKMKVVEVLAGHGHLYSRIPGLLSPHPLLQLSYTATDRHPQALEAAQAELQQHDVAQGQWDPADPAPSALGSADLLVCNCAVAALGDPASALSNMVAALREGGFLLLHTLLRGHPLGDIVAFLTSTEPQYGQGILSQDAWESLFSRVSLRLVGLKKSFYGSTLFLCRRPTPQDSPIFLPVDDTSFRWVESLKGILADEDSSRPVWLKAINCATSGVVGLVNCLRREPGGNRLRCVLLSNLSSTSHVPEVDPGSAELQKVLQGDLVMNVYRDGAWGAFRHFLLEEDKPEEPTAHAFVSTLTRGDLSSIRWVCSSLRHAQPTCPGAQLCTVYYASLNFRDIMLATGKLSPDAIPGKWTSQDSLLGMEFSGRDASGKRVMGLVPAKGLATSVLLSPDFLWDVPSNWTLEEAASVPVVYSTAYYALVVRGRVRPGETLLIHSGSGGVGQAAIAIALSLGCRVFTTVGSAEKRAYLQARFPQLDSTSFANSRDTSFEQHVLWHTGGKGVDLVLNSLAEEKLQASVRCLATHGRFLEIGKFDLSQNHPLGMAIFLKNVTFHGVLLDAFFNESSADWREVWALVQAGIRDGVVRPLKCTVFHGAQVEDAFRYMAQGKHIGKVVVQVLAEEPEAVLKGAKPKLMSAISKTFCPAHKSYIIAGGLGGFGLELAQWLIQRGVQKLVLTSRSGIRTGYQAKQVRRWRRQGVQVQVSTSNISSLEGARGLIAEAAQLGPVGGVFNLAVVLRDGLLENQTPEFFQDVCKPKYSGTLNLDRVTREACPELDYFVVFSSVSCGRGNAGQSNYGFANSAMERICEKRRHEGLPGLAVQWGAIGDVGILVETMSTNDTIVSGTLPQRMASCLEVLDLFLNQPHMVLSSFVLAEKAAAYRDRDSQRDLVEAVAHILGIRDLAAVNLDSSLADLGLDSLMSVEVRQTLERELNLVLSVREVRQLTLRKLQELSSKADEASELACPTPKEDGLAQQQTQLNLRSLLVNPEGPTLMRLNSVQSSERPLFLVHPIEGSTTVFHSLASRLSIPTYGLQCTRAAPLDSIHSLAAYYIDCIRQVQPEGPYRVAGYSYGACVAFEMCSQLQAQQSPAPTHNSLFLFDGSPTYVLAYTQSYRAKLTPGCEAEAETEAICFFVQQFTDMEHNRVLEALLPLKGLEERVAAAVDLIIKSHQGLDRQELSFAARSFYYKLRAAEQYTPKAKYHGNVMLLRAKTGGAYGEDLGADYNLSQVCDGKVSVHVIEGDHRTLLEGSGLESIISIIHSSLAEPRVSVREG

Row | Structure (SMILES) | IC50 [nM]
1 | O=C(c1ccc(-c2cccc(N3CCNC3=O)c2)cc1)N1CCN(C(=O)C2(O)CC2)CC1 [1-(3-{4-[4-(1-hydroxycyclopropanecarbonyl)piperazine-1-carbonyl]phenyl}phenyl)imidazolidin-2-one] | < 500
2 | O=C(c1ccc(-c2ccccc2)cc1)N1CCN(C(=O)C2(O)CC2)CC1 [1-({4-[(4-phenylphenyl)carbonyl]piperazin-1-yl}carbonyl)cyclopropan-1-ol] | < 500
3 | O=C(c1ccc(N2CCCc3ccccc3C2)cc1)N1CCN(C(=O)C2(O)CC2)CC1 [1-{4-[4-(2,3,4,5-tetrahydro-1H-2-benzazepin-2-yl)benzoyl]piperazine-1-carbonyl}cyclopropan-1-ol] | < 500
4 | O=C(c1ccc(N2CCc3ccccc32)cc1)N1CCN(C(=O)C2(O)CC2)CC1 [1-{4-[4-(2,3-dihydro-1H-indol-1-yl)benzoyl]piperazine-1-carbonyl}cyclopropan-1-ol] | < 500
5 | O=C(c1ccc(-c2cccc(OCC3CC3)c2)cc1)N1CCN(C(=O)C2(O)CC2)CC1 | < 500
6 | Cc1nc2ccccc2n1-c1ccc(C(=O)N2CCN(C(=O)C3(O)CC3)CC2)cc1 [1-{4-[4-(2-methyl-1H-1,3-benzodiazol-1-yl)benzoyl]piperazine-1-carbonyl}cyclopropan-1-ol] | < 500
7 | N#Cc1ccc2c(c1)CN(c1ccc(C(=O)N3CCN(C(=O)C4(O)CC4)CC3)cc1)CC2 [2-{4-[4-(1-hydroxycyclopropanecarbonyl)piperazine-1-carbonyl]phenyl}-1,2,3,4-tetrahydroisoquinoline-7-carbonitrile] | < 500
8 | C[C@@H]1CN(C(=O)c2ccc(-c3ccc(Cl)cc3F)cc2)C[C@H](C)N1C(=O)C1(O)CC1 [1-[(2S,6R)-4-[4-(4-chloro-2-fluorophenyl)benzoyl]-2,6-dimethylpiperazine-1-carbonyl]cyclopropan-1-ol] | < 500
9 | CC1Cc2ccccc2N1c1ccc(C(=O)N2CCN(C(=O)C3(O)CC3)CC2)cc1 (centres unmarked) [1-{4-[4-(2-methyl-2,3-dihydro-1H-indol-1-yl)benzoyl]piperazine-1-carbonyl}cyclopropan-1-ol] | < 500
10 | C[C@H]1CN(C(=O)c2ccc(-c3cccc(S(=O)(=O)C4CC4)c3)cc2)CCN1C(=O)C1(O)CC1 [1-[(2S)-4-{4-[3-(cyclopropanesulfonyl)phenyl]benzoyl}-2-methylpiperazine-1-carbonyl]cyclopropan-1-ol] | < 500
11 | O=C(c1ccc(N2Cc3ccc(F)cc3C2)cc1)N1CCN(C(=O)C2(O)CC2)CC1 [1-{4-[4-(5-fluoro-2,3-dihydro-1H-isoindol-2-yl)benzoyl]piperazine-1-carbonyl}cyclopropan-1-ol] | < 500

More lines, now with the values ahead:

Row | IC50 [nM] | Structure (SMILES)
12 | < 500 | Cn1ncc2ccc(-c3ccc(C(=O)N4CCN(C(=O)C5(N)CCC5)CC4)c(F)c3)cc21 [1-{4-[2-fluoro-4-(1-methyl-1H-indazol-6-yl)benzoyl]piperazine-1-carbonyl}cyclobutan-1-amine]
13 | < 500 | Cn1cnc2cc(-c3ccc(C(=O)N4CCN(C(=O)C5(N)CC5)CC4)cc3)ccc21 [1-{4-[4-(1-methyl-1H-1,3-benzodiazol-5-yl)benzoyl]piperazine-1-carbonyl}cyclopropan-1-amine]
14 | < 500 | Cn1nc(O)c2ccc(-c3ccc(C(=O)N4CCN(C(=O)C5(O)CC5)CC4)cc3)cc21 [6-{4-[4-(1-hydroxycyclopropanecarbonyl)piperazine-1-carbonyl]phenyl}-1-methyl-1H-indazol-3-ol]
15 | < 500 | Cn1cc2ccc(-c3ccc(C(=O)N4CCN(C(=O)C5(O)CC5)CC4)c(Cl)c3)cc2n1 [1-{4-[2-chloro-4-(2-methyl-2H-indazol-6-yl)benzoyl]piperazine-1-carbonyl}cyclopropan-1-ol]
16 | < 500 | Cn1cc2ccc(-c3ccc(C(=O)N4CCN(C(=O)C5(O)CC5)CC4)cc3Cl)cc2n1 [1-{4-[3-chloro-4-(2-methyl-2H-indazol-6-yl)benzoyl]piperazine-1-carbonyl}cyclopropan-1-ol]
17 | < 500 | O=C(c1ccc(-c2nc3ccccn3c2Cl)c(F)c1)N1CCN(C(=O)C2(O)CC2)CC1 [1-[4-(4-{3-chloroimidazo[1,2-a]pyridin-2-yl}-3-fluorobenzoyl)piperazine-1-carbonyl]cyclopropan-1-ol]
18 | < 500 | O=C(c1ccc(-c2nc3ccc(F)cc3o2)c(Cl)c1)N1CCN(C(=O)C2(O)CC2)CC1 [1-{4-[3-chloro-4-(6-fluoro-1,3-benzoxazol-2-yl)benzoyl]piperazine-1-carbonyl}cyclopropan-1-ol]
19 | < 500 | NC1(C(=O)N2CCN(C(=O)c3ccc(-c4n[nH]c5c(F)cccc45)cc3F)CC2)CC1
20 | < 500 | O=C(c1ccc(-c2nc3cc(Cl)ccc3[nH]2)cc1)N1CCN(C(=O)C2(O)CC2)CC1 [1-[(4-{[4-(5-chloro-1H-1,3-benzodiazol-2-yl)phenyl]carbonyl}piperazin-1-yl)carbonyl]cyclopropan-1-ol]
21 | < 500 | O=C(c1ccc(-c2cccc3nsnc23)cc1)N1CCN(C(=O)C2(O)CC2)CC1
22 | < 500 | O=C(c1ccc(-c2cccc(S(=O)(=O)NC3CC3)c2)cc1Cl)N1CCN(C(=O)C2(O)CC2)CC1 [3-[3-chloro-4-({4-[(1-hydroxycyclopropyl)carbonyl]piperazin-1-yl}carbonyl)phenyl]-N-cyclopropylbenzene-1-sulfonamide]
23 | < 500 | O=C(c1ccc(-c2nc3ccccn3c2Cl)c(Cl)c1)N1CCN(C(=O)C2(O)CC2)CC1 [1-[4-(3-chloro-4-{3-chloroimidazo[1,2-a]pyridin-2-yl}benzoyl)piperazine-1-carbonyl]cyclopropan-1-ol]
24 | < 500 | Nc1nc(-c2cccc(-c3ccc(C(=O)N4CCN(C(=O)C5(O)CC5)CC4)cc3)c2)n[nH]1 [1-(4-{4-[3-(5-amino-1H-1,2,4-triazol-3-yl)phenyl]benzoyl}piperazine-1-carbonyl)cyclopropan-1-ol]
25 | < 500 | Cn1ncc2ccc(-c3ccc(C(=O)N4CCN(C(=O)C5(N)CC5)CC4)cc3)cc21
26 | < 500 | O=C(c1ccc(-c2cc(Cl)ccc2Cl)cc1)N1CCN(C(=O)C2(O)CC2)CC1 [1-[(4-{[4-(2,5-dichlorophenyl)phenyl]carbonyl}piperazin-1-yl)carbonyl]cyclopropan-1-ol]

same assay, conditions: FASN enzymatic assay; Table 2-2

Row | Structure (SMILES) | IC50 [nM]
27 | O=C(c1ccc(-c2ccnc3cc(C(F)(F)F)ccc23)cc1)N1CCN(C(=O)C2(O)CC2)CC1 [1-{[4-({4-[7-(trifluoromethyl)quinolin-4-yl]phenyl}carbonyl)piperazin-1-yl]carbonyl}cyclopropan-1-ol] | 500 to 5000
28 | COc1ccc2cc(-c3ccc(C(=O)N4CCN(C(=O)C5(O)CC5)CC4)cn3)ccc2n1 [1-[(4-{[6-(2-methoxyquinolin-6-yl)pyridin-3-yl]carbonyl}piperazin-1-yl)carbonyl]cyclopropan-1-ol] | 500 to 5000
29 | Cc1nc(-c2ccc3c(ccn3C)c2)sc1C(=O)N1CCN(C(=O)C2(O)CC2)CC1 [1-[(4-{[4-methyl-2-(1-methyl-1H-indol-5-yl)-1,3-thiazol-5-yl]carbonyl}piperazin-1-yl)carbonyl]cyclopropan-1-ol] | 500 to 5000
30 | CC(C)n1ncc2cc(-c3ccc(C(=O)N4CCN(C(=O)C5(O)CC5)CC4)cc3)ccc21 [1-{[4-({4-[1-(propan-2-yl)-1H-indazol-5-yl]phenyl}carbonyl)piperazin-1-yl]carbonyl}cyclopropan-1-ol] | 500 to 5000
31 | Cc1nc(-c2cnc3ccccc3c2)sc1C(=O)N1CCN(C(=O)C2(O)CC2)CC1 [1-[(4-{[4-methyl-2-(quinolin-3-yl)-1,3-thiazol-5-yl]carbonyl}piperazin-1-yl)carbonyl]cyclopropan-1-ol] | 500 to 5000

Second part, the compound after the results:

Row | IC50 [nM] | Structure (SMILES)
32 | 500 to 5000 | O=C(c1ccc(-c2cc(F)cc(C(F)(F)F)c2)cc1)N1CCN(C(=O)C2(O)CC2)CC1 [1-{[4-({4-[3-fluoro-5-(trifluoromethyl)phenyl]phenyl}carbonyl)piperazin-1-yl]carbonyl}cyclopropan-1-ol]
33 | 500 to 5000 | COc1cc(-c2ccc3ncccc3c2)ccc1C(=O)N1CCN(C(=O)C2(O)CC2)CC1 [1-[(4-{[2-methoxy-4-(quinolin-6-yl)phenyl]carbonyl}piperazin-1-yl)carbonyl]cyclopropan-1-ol]
34 | 500 to 5000 | COc1ccc(-c2ccc(C(=O)N3CCN(C(=O)C4(O)CC4)CC3)cc2)c(F)c1 [1-[(4-{[4-(2-fluoro-4-methoxyphenyl)phenyl]carbonyl}piperazin-1-yl)carbonyl]cyclopropan-1-ol]
35 | 500 to 5000 | O=C(c1ncc(-c2ccc(Cl)cc2F)cn1)N1CCN(C(=O)C2(O)CC2)CC1 [1-[(4-{[5-(4-chloro-2-fluorophenyl)pyrimidin-2-yl]carbonyl}piperazin-1-yl)carbonyl]cyclopropan-1-ol]
36 | 500 to 5000 | COc1cccc(-c2ccc(C(=O)N3CCN(C(=O)C4(O)CC4)CC3)cc2)c1F [1-[(4-{[4-(2-fluoro-3-methoxyphenyl)phenyl]carbonyl}piperazin-1-yl)carbonyl]cyclopropan-1-ol]
37 | 500 to 5000 | O=C(c1ccc(-c2ccc(Cl)cc2C(F)(F)F)cc1)N1CCN(C(=O)C2(O)CC2)CC1 [1-{[4-({4-[4-chloro-2-(trifluoromethyl)phenyl]phenyl}carbonyl)piperazin-1-yl]carbonyl}cyclopropan-1-ol]

same assay, conditions: FASN enzymatic assay; Table 2-3

Row | Structure (SMILES) | IC50 [nM]
38 | COC(C)(C)C(=O)N1CCN(C(=O)c2ccc(-c3ccccc3)cc2)CC1 [2-methoxy-2-methyl-1-{4-[(4-phenylphenyl)carbonyl]piperazin-1-yl}propan-1-one] | ≥ 5000
39 | COc1ccc(-c2ccc(C(=O)N3CCN(C(=O)C4(O)CC4)CC3)cc2)c(Cl)c1 [1-[(4-{[4-(2-chloro-4-methoxyphenyl)phenyl]carbonyl}piperazin-1-yl)carbonyl]cyclopropan-1-ol] | ≥ 5000

Second part, the compound after the results:

Row | IC50 [nM] | Structure (SMILES)
40 | ≥ 5000 | O=C(c1ccc(-c2cncc(F)c2)cc1)N1CCN(C(=O)C2(O)CC2)CC1 [1-[(4-{[4-(5-fluoropyridin-3-yl)phenyl]carbonyl}piperazin-1-yl)carbonyl]cyclopropan-1-ol]
41 | ≥ 5000 | Cc1ccc(F)cc1-c1ccc(C(=O)N2CCN(C(=O)C3(O)CC3)CC2)cc1 [1-[(4-{[4-(5-fluoro-2-methylphenyl)phenyl]carbonyl}piperazin-1-yl)carbonyl]cyclopropan-1-ol]
